Test results reported in ChEMBL document CHEMBL3301361, “Experimental in vitro DMPK and physicochemical data on a set of publicly disclosed compounds”.
Values after ≈ are worked out from the molar mass of the structure shown.

Assays:
physchem [1] = details: octan-1-ol/water
in vitro [2] = details: human, plasma
in vitro [3] = details: SD, HW or BN, rat, plasma
in vitro [4] = details: Beagle, dog, plasma
in vitro [5] = details: mouse, plasma
in vitro [6] = details: Dunkin Hartley, guinea pig, plasma
in vitro [7] = details: human, hepatocytes
in vitro [8] = details: human
in vitro [9] = details: hepatocytes
physchem [10] = details: pH 7.4 buffer
physchem [11] = experiment: physchem
physchem [12] = experiment: physchem; remark: listed apart in the source

Row | Structure (SMILES) | logD (physchem [1]; pH 7.4, LogD7.4) | fraction unbound at 5 h (in vitro [2]; PPB) | fraction unbound at 5 h (in vitro [3]) | fraction unbound at 5 h (in vitro [6]) | hepatocyte CLint (in vitro [9]) | also measured
1 | O=c1cc(OCc2ccccc2)ccn1-c1ccc2c(cnn2CCN2CCCC2)c1 | 2 | 0.17 | 0.119 | – | – | fraction unbound at 5 h (in vitro [4]): 0.16; fraction unbound at 5 h (in vitro [5]): 0.137
2 | Cc1nn(C2CCCCC2)c(N)c1-c1ccccc1 | – | 0.0447 | 0.101 | 0.105 | – | hepatocyte CLint (in vitro [7]): 13.8 µL/min/1e6 cells
3 | C[C@@H](NC(=O)Cc1ccc(C2CC2)cc1)c1ccc(OCC(F)(F)F)cn1 | – | 0.0041 | 0.0044 | 0.0006 | – | –
4 | CCN(CCNCCc1ccc(O)c2[nH]c(=O)sc12)C(=O)CCOCCc1ccccc1 | 1.92 | 0.0544 | – | 0.103 | 135 µL/min/1e6 cells | microsomal CLint (in vitro [8]; liver microsomes): 82 µL/min/mg
5 | CCCN(CCNCCc1ccc(O)c2[nH]c(=O)sc12)C(=O)CCOCCc1ccccc1 | – | 0.0606 | – | 0.11 | 107 µL/min/1e6 cells | microsomal CLint (in vitro [8]; liver microsomes): > 150 µL/min/mg
6 | CC(C)N(CCNCCc1ccc(O)c2[nH]c(=O)sc12)C(=O)CCOCCc1ccccc1 | 2.33 | 0.028 | – | 0.0752 | 99 µL/min/1e6 cells | microsomal CLint (in vitro [8]; microsomes): 60 µL/min/mg
7 | O=c1[nH]c2c(O)ccc([C@@H](O)CNCCCOCCNCCc3cccc(Cl)c3)c2s1 | -0.03 | – | – | 0.186 | < 3 µL/min/1e6 cells | microsomal CLint (in vitro [8]; liver microsomes): < 3 µL/min/mg
8 | N#Cc1ccc2c(c1)N(CCN1CCC(NCc3ccc4c(n3)NC(=O)CO4)CC1)C(=O)CO2 | – | – | – | 0.591 | 8.51 µL/min/1e6 cells | logD (physchem [1]; pH 7.4): 0.23
9 | COc1ccc2ncc(F)c(CCN3CCC(NCc4cc5c(cn4)OCCO5)CC3)c2n1 | 1.46 | 0.173 | – | – | 138 µL/min/1e6 cells | fraction unbound at 5 h (in vitro [4]): 0.0968; fraction unbound at 5 h (in vitro [5]): 0.36
10 | Cc1cc(CCC[N+]23CCC(CC2)[C@@H](OC(=O)[C@](C)(c2ccccc2)N2CCCCC2)C3)ccn1 | – | – | – | 0.529 | 36.1 µL/min/1e6 cells | –
11 | C[C@@](C(=O)O[C@H]1C[N+]2(CCCc3ccc4ncsc4c3)CCC1CC2)(c1ccccc1)N1CCCCC1 | – | – | – | 0.244 | 66 µL/min/1e6 cells | –
12 | C[C@@](C(=O)O[C@H]1C[N+]2(CC(=O)Nc3ccccc3)CCC1CC2)(c1ccccc1)N1CCCCC1 | – | – | – | 0.0499 | 64 µL/min/1e6 cells | –
13 | C[C@@](C(=O)O[C@H]1C[N+]2(CCc3ccccc3)CCC1CC2)(c1ccccc1)N1CCCCC1 | – | – | 0.22 | 0.129 | 76 µL/min/1e6 cells | –
14 | C[C@@](C(=O)O[C@H]1C[N+]2(CCc3ccccc3F)CCC1CC2)(c1ccccc1)N1CCCCC1 | – | – | – | 0.194 | 130 µL/min/1e6 cells | –
15 | C[C@H](c1nc2ncccc2c(=O)n1-c1ccc(Cl)cc1)N(CC1CCS(=O)(=O)CC1)C(=O)Cc1ccc(C(F)(F)F)c(F)c1 | 2.9 | 0.11 | 0.101 | – | 7.08 µL/min/1e6 cells | fraction unbound at 5 h (in vitro [4]): 0.0544; fraction unbound at 5 h (in vitro [5]): 0.0477; microsomal CLint (in vitro [8]; microsomes): 5.25 µL/min/mg
16 | COc1ccccc1CCNCc1cccc(CCNC[C@H](O)c2ccc(O)c3[nH]c(=O)sc23)c1 | 0.82 | – | 0.0836 | 0.276 | – | –
17 | COc1ccccc1CCNCc1ccc(CCNC[C@H](O)c2ccc(O)c3[nH]c(=O)sc23)cc1 | – | 0.0447 | 0.0606 | 0.0447 | 29 µL/min/1e6 cells | microsomal CLint (in vitro [8]; liver microsomes): 25 µL/min/mg
18 | COc1cccc(CNCc2cccc(CCNC[C@H](O)c3ccc(O)c4[nH]c(=O)sc34)c2)c1 | 0.91 | 0.137 | 0.154 | 0.216 | – | microsomal CLint (in vitro [8]; liver microsomes): 35 µL/min/mg

Row | Structure (SMILES) | logD (physchem [1]; pH 7.4, LogD7.4) | fraction unbound at 5 h (in vitro [2]; PPB) | fraction unbound at 5 h (in vitro [3]) | fraction unbound at 5 h (in vitro [6]) | hepatocyte CLint (in vitro [9]) | also measured
19 | COc1nc(Br)cnc1NS(=O)(=O)c1ccc(Cl)s1 | 0.99 | 0.0013 | 0.002 | – | – | solubility thermodynamic (physchem [10]): 891 µM (≈ 343 µg/mL); fraction unbound at 5 h (in vitro [4]): 0.0124; fraction unbound at 5 h (in vitro [5]): 0.0191; pKa (physchem [11]): 4.1
20 | COc1cnc(-c2ccccc2C(F)(F)CNC(=O)c2ccc(COCC(F)(F)F)nc2)cn1 | – | 0.0069 | 0.0532 | 0.0544 | – | solubility thermodynamic (physchem [10]): 85.1 µM (≈ 41.1 µg/mL)
21 | O=C1COc2c(CCNCCN(C(=O)CCNCCc3ccc(Cl)c(Cl)c3)C3CCCCC3)ccc(O)c2N1 | 2.23 | 0.0313 | 0.0801 | 0.173 | 22 µL/min/1e6 cells | microsomal CLint (in vitro [8]; microsomes): 38 µL/min/mg
22 | CCCN(c1cccc(S(C)(=O)=O)c1)P(=O)(c1ccccc1)c1ccccc1 | – | – | 0.186 | 0.289 | – | fraction unbound at 5 h (in vitro [2]): 0.0321
23 | COCCN(c1cccnc1)P(=O)(c1ccccc1)c1ccccc1 | – | – | 0.376 | 0.58 | – | fraction unbound at 5 h (in vitro [2]): 0.0872
24 | CCCN(c1cncnc1)P(=O)(c1ccccc1)c1ccccc1 | – | – | – | 0.529 | – | –
25 | CC(C)C[C@H](CO)Nc1nc(S[C@@H](C)c2ccccc2F)nc2nc(N)sc12 | – | 0.0011 | – | – | – | fraction unbound at 5 h (in vitro [4]): 0.002; fraction unbound at 5 h (in vitro [5]): 0.002; hepatocyte CLint (in vitro [7]): 30.9 µL/min/1e6 cells
26 | CN(CCNCCc1ccc(O)c2[nH]c(=O)sc12)C(=O)CCOCCc1ccccc1 | – | 0.107 | 0.208 | 0.276 | 140 µL/min/1e6 cells | microsomal CLint (in vitro [8]; liver microsomes): 35 µL/min/mg
27 | Cc1ccc2c(c1)c(-c1ccnc3c(Cl)cccc13)c(C)n2CC(=O)O | 1.27 | – | 0.0077 | – | – | pKa (physchem [12]): 4.4; solubility thermodynamic (physchem [10]): 1320 µM (≈ 481 µg/mL); fraction unbound at 5 h (in vitro [4]): 0.0041; fraction unbound at 5 h (in vitro [5]): 0.0229; microsomal CLint (in vitro [8]; liver microsomes): 7 µL/min/mg; pKa (physchem [11]): 2.9
28 | C[C@H](Nc1ncc(F)c(Nc2cc(C3CC3)[nH]n2)n1)c1ccc(F)cn1 | 3.14 | 0.0801 | 0.035 | – | – | fraction unbound at 5 h (in vitro [4]): 0.183; fraction unbound at 5 h (in vitro [5]): 0.0418
29 | Cc1ccc2c(OCCN3CCC(Cc4cccc(NS(C)(=O)=O)c4)CC3)cccc2n1 | – | – | 0.0532 | 0.0437 | – | –
30 | N=C(NCCCCc1ccc(OCC(O)CO)cc1)NC(=O)c1nc(Cl)c(N)nc1N (stereo not drawn) [552-02 FREE BASE] | – | 0.249 | 0.314 | 0.299 | – | –
31 | CC(C)(C)NCC(O)c1ccc(O)c(CO)c1 (stereo not drawn) [ALBUTEROL] | – | 0.772 | 0.656 | 0.855 | – | –
32 | CC(=O)Nc1nc2c(Oc3cc(-c4ccc(C(F)(F)F)cc4)ncn3)cccc2s1 [AMG-517] | – | 0.001 | 0.002 | 0.0139 | – | –
33 | O=C(NCC1CCCCN1)c1cc(OCC(F)(F)F)ccc1OCC(F)(F)F (stereo not drawn) [FLECAINIDE] | 1.13 | 0.619 | 0.535 | 0.574 | – | –
34 | COc1ccc(Cl)cc1C(=O)NCCc1ccc(S(=O)(=O)NC(=O)NC2CCCCC2)cc1 [GLYBURIDE] | 2.23 | 0.0012 | 0.0012 | – | – | solubility thermodynamic (physchem [10]): 10.5 µM (≈ 5.19 µg/mL); fraction unbound at 5 h (in vitro [5]): 0.0027; microsomal CLint (in vitro [8]; liver microsomes): 22 µL/min/mg; hepatocyte CLint (in vitro [7]): 14.4 µL/min/1e6 cells; pKa (physchem [11]): 3.76
35 | O=CNc1cc([C@@H](O)CNCCc2ccc(NC[C@H](O)c3ccccc3)cc2)ccc1O [MILVETEROL] | 0.02 | 0.285 | – | 0.194 | – | hepatocyte CLint (in vitro [7]): < 3 µL/min/1e6 cells
36 | O=c1[nH]c2c(O)ccc(CCNCCS(=O)(=O)CCCOCCc3ccccc3)c2s1 [SIBENADET] | 2.61 | 0.0556 | 0.0784 | 0.101 | 91 µL/min/1e6 cells | microsomal CLint (in vitro [8]; microsomes): 111 µL/min/mg
